Laboratory results from ChEMBL document CHEMBL1201862, “PubChem BioAssay data set” (2004).
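1) Cells in 96-well plates. 2) Compound, 48 h, 5 concentrations. 3) Linear interpolation between surrounding doses. 4) Unreached endpoint = highest concentration. GI50 marks 50% less growth.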 Activity calls are given as the source filed them. Rule as the data show it: active = GI50 up to about 1.1 µM and inactive = higher.

Tests used:
Experiment in all cases: NCI tumour cell line growth inhibition, 48 h
M14 = tested on: M14
HT-29 = tested on: HT-29
ACHN = tested on: ACHN
UO-31 = tested on: UO-31
SF-539 = tested on: SF-539
NCI-H522 = tested on: NCI-H522
A498 = tested on: A498
NCI-H460 = tested on: NCI-H460
CAKI-1 = tested on: CAKI-1
CCRF-CEM = tested on: CCRF-CEM
COLO 205 = tested on: COLO 205
KM12 = tested on: KM12
UACC-257 = tested on: UACC-257
IGROV-1 = tested on: IGROV-1
OVCAR-4 = tested on: OVCAR-4
RXF 393 = tested on: RXF 393
HCC 2998 = tested on: HCC 2998
MOLT-4 = tested on: MOLT-4
RPMI-8226 = tested on: RPMI-8226

Measured: GI50

O=C(C#Cc1ccccc1)NC/C=C/c1ccccc1
inactive: M14 55.3 µM | HT-29 50.2 µM | ACHN 42.6 µM | UO-31 33.4 µM | SF-539 33.3 µM | NCI-H522 29.7 µM | A498 52 µM | NCI-H460 47.9 µM | CAKI-1 37.2 µM | CCRF-CEM 36.8 µM | COLO 205 83.4 µM | KM12 46.7 µM | UACC-257 > 100 µM | IGROV-1 55.8 µM | OVCAR-4 48.1 µM | RXF 393 14.8 µM | HCC 2998 35.2 µM | MOLT-4 33.6 µM

C(=C\c1ccccc1)/Cn1nc(-c2ccccc2)nc1-c1cnccn1
inactive: M14 > 100 µM | HT-29 > 100 µM | UO-31 > 100 µM | SF-539 > 100 µM | NCI-H522 > 100 µM | NCI-H460 > 100 µM | CCRF-CEM > 100 µM | COLO 205 > 100 µM | KM12 > 10 µM | UACC-257 > 100 µM | IGROV-1 > 100 µM | OVCAR-4 68.9 µM | RXF 393 > 100 µM | RPMI-8226 > 100 µM | HCC 2998 > 100 µM | MOLT-4 > 100 µM

O=S1(=O)OCCOS(=O)(=O)C1(I)I
inactive: M14 20 µM | HT-29 24.8 µM | UO-31 18.7 µM | SF-539 21.7 µM | NCI-H522 18.7 µM | A498 16.7 µM | CAKI-1 17.3 µM | CCRF-CEM 10.9 µM | COLO 205 16.9 µM | KM12 18.9 µM | UACC-257 22.6 µM | IGROV-1 25.3 µM | OVCAR-4 19.7 µM | RPMI-8226 9.12 µM | HCC 2998 20.8 µM | MOLT-4 15.9 µM

CCC1(N=[N+]=[N-])C(=O)Nc2cc(C)ccc2C1=O (configuration not stated)
inactive: M14 76.7 µM | HT-29 89.9 µM | ACHN 22.3 µM | UO-31 46.7 µM | SF-539 > 100 µM | NCI-H522 4.25 µM | A498 > 100 µM | NCI-H460 > 100 µM | CAKI-1 36.9 µM | CCRF-CEM 34.3 µM | COLO 205 69.3 µM | KM12 > 100 µM | UACC-257 96.4 µM | IGROV-1 > 100 µM | OVCAR-4 > 100 µM | HCC 2998 > 100 µM | MOLT-4 39.4 µM
